Several values for one entry are separate records, joined by “and”; a condition that tells them apart may be missing. Equal entries are not always repeated.
Assays:
[1] = Boiling temperature at pressure P; conditions: 100 kPa; Glass; DTA
[2] = Closed cell (Static) method
[3] = Solid-liquid equilibrium temperature; conditions: 100 kPa, DTA
[4] = Molar enthalpy of transition or fusion; conditions: DSC

O=C(c1ccccc1)c1ccccc1 [benzophenone]
Conditions | Boiling temperature at pressure P [°C]
[1] | -61

[2]
Conditions | vapor or sublimation pressure
293.08 K, Crystal | 4.2e-05 kPa
293.09 K, Crystal | 4.6e-05 kPa
293.1 K, Crystal | 4.1e-05 kPa
293.11 K, Metastable liquid | 8.1e-05 kPa and 8.4e-05 kPa and 8.5e-05 kPa
296.29 K, Crystal | 6.8e-05 kPa and 6.9e-05 kPa
296.3 K, Crystal | 6.7e-05 kPa
298.44 K, Crystal | 9.2e-05 kPa and 9.3e-05 kPa
298.45 K, Crystal | 9e-05 kPa
298.48 K, Metastable liquid | 0.000153 kPa and 0.000157 kPa and 0.000158 kPa
300.55 K, Crystal | 0.000124 kPa
300.56 K, Crystal | 0.000118 kPa and 0.000119 kPa
302.13 K, Metastable liquid | 0.000217 kPa and 0.000221 kPa
302.14 K, Metastable liquid | 0.000217 kPa
303.2 K, Crystal | 0.000168 kPa
303.22 K, Crystal | 0.000166 kPa
303.25 K, Crystal | 0.000165 kPa
306.93 K, Crystal | 0.000263 kPa and 0.000265 kPa and 0.000267 kPa
307.46 K, Metastable liquid | 0.000382 kPa
307.48 K, Metastable liquid | 0.000376 kPa and 0.00038 kPa
309.05 K, Crystal | 0.000338 kPa and 0.00034 kPa and 0.000345 kPa
311.1 K, Crystal | 0.000431 kPa and 0.000434 kPa and 0.000435 kPa
312.77 K, Metastable liquid | 0.000631 kPa
312.78 K, Metastable liquid | 0.000635 kPa and 0.000637 kPa
314.3 K, Crystal | 0.000629 kPa and 0.000632 kPa and 0.000635 kPa
317.33 K, Crystal | 0.000891 kPa
317.34 K, Crystal | 0.000892 kPa and 0.000899 kPa
318.05 K, Metastable liquid | 0.001035 kPa and 0.001036 kPa and 0.001039 kPa
319.4 K, Crystal | 0.00113 kPa
319.41 K, Crystal | 0.001128 kPa and 0.001131 kPa
320.42 K, Crystal | 0.001256 kPa and 0.001265 kPa and 0.001267 kPa
320.95 K, Crystal | 0.001353 kPa and 0.001356 kPa and 0.001362 kPa
323.33 K, Metastable liquid | 0.001658 kPa and 0.00166 kPa and 0.001661 kPa
333.79 K, Liquid | 0.003974 kPa and 0.003975 kPa and 0.003979 kPa
338.9 K, Liquid | 0.005953 kPa and 0.005954 kPa and 0.005968 kPa
344.09 K, Liquid | 0.008882 kPa and 0.00889 kPa and 0.008894 kPa
349.19 K, Liquid | 0.0129 kPa and 0.01291 kPa and 0.01293 kPa
354.35 K, Liquid | 0.01864 kPa and 0.01865 kPa and 0.01866 kPa
359.4 K, Liquid | 0.02628 kPa and 0.02629 kPa and 0.02631 kPa
364.47 K, Liquid | 0.03673 kPa
364.48 K, Liquid | 0.03672 kPa

Conditions | Molar enthalpy of transition or fusion, [4] [kcal/mol] | Solid-liquid equilibrium temperature, [3] [K]
Crystal | 4.45 | 321.3
Metastable crystal | 3.47 | 298.3

CCCCCCCCCC [decane]
[2], Liquid
Conditions | vapor or sublimation pressure
276.76 K | 0.03526 kPa
276.77 K | 0.03527 kPa and 0.03532 kPa
279.78 K | 0.0452 kPa
279.79 K | 0.04525 kPa
282.92 K | 0.0583 kPa and 0.05835 kPa
282.93 K | 0.05835 kPa
285.13 K | 0.06951 kPa
285.16 K | 0.06967 kPa
285.18 K | 0.06981 kPa
288.76 K | 0.0915 kPa and 0.09155 kPa
288.77 K | 0.09159 kPa
292.21 K | 0.1188 kPa
292.22 K | 0.1188 kPa
294.67 K | 0.1405 kPa
301.29 K | 0.2229 kPa
301.38 K | 0.2242 kPa and 0.2243 kPa
303.84 K | 0.2659 kPa
303.85 K | 0.266 kPa and 0.2661 kPa
307.33 K | 0.3327 kPa and 0.3328 kPa
315.2 K | 0.5466 kPa
315.21 K | 0.5467 kPa
319.09 K | 0.6901 kPa
319.11 K | 0.6907 kPa and 0.6909 kPa
320.85 K | 0.7646 kPa and 0.7649 kPa and 0.765 kPa
324.98 K | 0.9683 kPa
324.99 K | 0.9687 kPa
325 K | 0.9687 kPa
326.41 K | 1.049 kPa
330.79 K | 1.33 kPa and 1.331 kPa
330.8 K | 1.332 kPa
331.92 K | 1.414 kPa
331.93 K | 1.415 kPa
